Data published in publication PMC8373216, “Development and Preclinical Evaluation of New Inhaled Lipoglycopeptides for the Treatment of Persistent Pulmonary Methicillin-Resistant Staphylococcus aureus Infections” (Antimicrobial Agents and Chemotherapy, 2021).
Converted amounts (≈) assume the structure as drawn. Where two headings read alike, the source gives them in different places.

Tests used:
[1] = tested on: MSSA ATCC 29213; experiment: In-house broth microdilution MIC screening; type: cell-based; settings: Staphylococcus aureus, read-out: MIC Value, MSSA ATCC 29213
[2] = tested on: MRSA ATCC BAA 1556 (USA300); experiment: In-house broth microdilution MIC screening; type: cell-based, Staphylococcus aureus; settings: for MIC: Staphylococcus aureus, read-out: MIC Value, MRSA ATCC BAA 1556
[3] = Single-dose nebulized nose-only inhalation PK in healthy rats; type: in vivo, rat; settings: male, Sprague Dawley, rat, in vivo
Procedure: Rats were acclimated in the study facility for approximately 1 week prior to study start. Ten or eleven rats per cohort were loaded into the chamber at the time of dosing. […] An additional airflow set to 6 liters/min was admixed with the nebulizer output to further direct the test articles to the animals. […] The remaining port on the chamber was fit with an aerosol sampling filter for dose determination over a 5 min sampling period. The average dose delivered to the nose of each animal was calculated using an algorithm that was previously described ([49]). […] Animals were euthanized for collection of whole lungs and plasma at time points ranging from immediate postdose (IPD; approximately 30 min after dosing for nebulization) to 168 h postdose (7 days). Drugs were extracted from tissues using customized protein precipitation methods with an appropriate internal standard for each compound and transferred for analysis by LC-MS/MS (Sciex API4500 or API6500+ mass spectrometer [Sciex, Framingham, MA]). GraphPad Prism (La Jolla, CA) was used for statistical analyses and data plotting. […] The data were applied to a noncompartmental analysis after extravascular dosing input and fit to a linear up/log down model. Statistical analysis of in vitro intracellular and biofilm activity was based on a two-way ANOVA with a Bonferroni post test. In vivo statistical analysis was based on the Kolmogorov-Smirnov test.

[4] = MRSA and MSSA isolates of Table 1

Compound	MIC ([1]; broth microdilution) [µg/mL]	MIC ([2]; broth microdilution) [µg/mL]	further results
CCCCCCCCCC(=O)OCCNC1(C)CC(OC2C(Oc3c4cc5cc3Oc3ccc(cc3Cl)C(O)C3NC(=O)C(NC(=O)C5NC(=O)C(CC(N)=O)NC(=O)C(NC(=O)C(CC(C)C)NC)C(O)c5ccc(c(Cl)c5)O4)c4ccc(O)c(c4)-c4c(O)cc(O)cc4C(C(=O)O)NC3=O)OC(CO)C(O)C2O)OC(C)C1O (centres unmarked) [RV54]	0.146 (≈ 0.0886 µM)	0.167 (≈ 0.101 µM)	–
CCCCCCCCCCOC(=O)CNC1(C)CC(OC2C(Oc3c4cc5cc3Oc3ccc(cc3Cl)C(O)C3NC(=O)C(NC(=O)C5NC(=O)C(CC(N)=O)NC(=O)C(NC(=O)C(CC(C)C)NC)C(O)c5ccc(c(Cl)c5)O4)c4ccc(O)c(c4)-c4c(O)cc(O)cc4C(C(=O)O)NC3=O)OC(CO)C(O)C2O)OC(C)C1O (centres unmarked) [RV55]	0.25 (≈ 0.152 µM)	0.25 (≈ 0.152 µM)	–
CCCCCCCCCC(=O)NCCNC1(C)CC(OC2C(Oc3c4cc5cc3Oc3ccc(cc3Cl)C(O)C3NC(=O)C(NC(=O)C5NC(=O)C(CC(N)=O)NC(=O)C(NC(=O)C(CC(C)C)NC)C(O)c5ccc(c(Cl)c5)O4)c4ccc(O)c(c4)-c4c(O)cc(O)cc4C(C(=O)O)NC3=O)OC(CO)C(O)C2O)OC(C)C1O (centres unmarked) [RV56]	0.063 (≈ 0.0383 µM)	0.063 (≈ 0.0383 µM)	–
CCCCCCCCCCCC(=O)OCCNC1(C)CC(OC2C(Oc3c4cc5cc3Oc3ccc(cc3Cl)C(O)C3NC(=O)C(NC(=O)C5NC(=O)C(CC(N)=O)NC(=O)C(NC(=O)C(CC(C)C)NC)C(O)c5ccc(c(Cl)c5)O4)c4ccc(O)c(c4)-c4c(O)cc(O)cc4C(C(=O)O)NC3=O)OC(CO)C(O)C2O)OC(C)C1O (centres unmarked) [RV65]	0.063 (≈ 0.0376 µM)	0.094 (≈ 0.0561 µM)	–
CNC(CC(C)C)C(=O)NC1C(=O)NC(CC(N)=O)C(=O)NC2C(=O)NC3C(=O)NC(C(=O)NC(C(=O)O)c4cc(O)cc(O)c4-c4cc3ccc4O)C(O)c3ccc(c(Cl)c3)Oc3cc2cc(c3OC2OC(CO)C(O)C(O)C2OC2CC(C)(NCCO)C(O)C(C)O2)Oc2ccc(cc2Cl)C1O (centres unmarked) [RV80]	1.5 (≈ 1 µM)	2 (≈ 1.34 µM)	Lung retention of primary hydrolysis by-product [3]: sustained in the lung throughout the course of the 120 h experiments
CNC(CC(C)C)C(=O)NC1C(=O)NC(CC(N)=O)C(=O)NC2C(=O)NC3C(=O)NC(C(=O)NC(C(=O)O)c4cc(O)cc(O)c4-c4cc3ccc4O)C(O)c3ccc(c(Cl)c3)Oc3cc2cc(c3OC2OC(CO)C(O)C(O)C2OC2CC(C)(NCCN)C(O)C(C)O2)Oc2ccc(cc2Cl)C1O (centres unmarked) [RV82]	2 (≈ 1.34 µM)	2 (≈ 1.34 µM)	Lung retention of primary hydrolysis by-product [3]: sustained in the lung throughout the course of the 120 h experiments
CCCCCCCCCCCCCC(=O)OCCNC1(C)CC(OC2C(Oc3c4cc5cc3Oc3ccc(cc3Cl)C(O)C3NC(=O)C(NC(=O)C5NC(=O)C(CC(N)=O)NC(=O)C(NC(=O)C(CC(C)C)NC)C(O)c5ccc(c(Cl)c5)O4)c4ccc(O)c(c4)-c4c(O)cc(O)cc4C(C(=O)O)NC3=O)OC(CO)C(O)C2O)OC(C)C1O (centres unmarked) [RV88]	0.125 (≈ 0.0734 µM)	0.125 (≈ 0.0734 µM)	Pulmonary dose [3]: 0.12 mg/kg; Time to full conversion to hydrolysis product in the lung [3]: ≤ 24 h; Drug lung level at 120 h ([3]; 120 h): 1.5%; Primary hydrolysis byproduct lung level at 120 h ([3]; 120 h): 71%; Kp ([3]; inhaled or intranasal): 1350; Lung AUC0-∞ ([3]; inhaled or intranasal): 360 µg·h/g; Lung Cmax ([3]; inhaled or intranasal): 26 µg/g; Lung t1/2 ([3]; inhaled or intranasal): 21 h; Plasma Cmax ([3]; inhaled or intranasal): 20 ng/mL
CCCCCCCCCCCCCCCC(=O)OCCNC1(C)CC(OC2C(Oc3c4cc5cc3Oc3ccc(cc3Cl)C(O)C3NC(=O)C(NC(=O)C5NC(=O)C(CC(N)=O)NC(=O)C(NC(=O)C(CC(C)C)NC)C(O)c5ccc(c(Cl)c5)O4)c4ccc(O)c(c4)-c4c(O)cc(O)cc4C(C(=O)O)NC3=O)OC(CO)C(O)C2O)OC(C)C1O (centres unmarked) [RV89]	0.5 (≈ 0.289 µM)	1 (≈ 0.577 µM)	–
CCCCCCCC(=O)OCCNC1(C)CC(OC2C(Oc3c4cc5cc3Oc3ccc(cc3Cl)C(O)C3NC(=O)C(NC(=O)C5NC(=O)C(CC(N)=O)NC(=O)C(NC(=O)C(CC(C)C)NC)C(O)c5ccc(c(Cl)c5)O4)c4ccc(O)c(c4)-c4c(O)cc(O)cc4C(C(=O)O)NC3=O)OC(CO)C(O)C2O)OC(C)C1O (centres unmarked) [RV90]	–	–	MIC [1]: 0.25 µg/mL (≈ 0.154 µM); MIC [2]: 0.25 µg/mL (≈ 0.154 µM)
CCCCCCCCCCCCCCCC(=O)NCCNC1(C)CC(OC2C(Oc3c4cc5cc3Oc3ccc(cc3Cl)C(O)C3NC(=O)C(NC(=O)C5NC(=O)C(CC(N)=O)NC(=O)C(NC(=O)C(CC(C)C)NC)C(O)c5ccc(c(Cl)c5)O4)c4ccc(O)c(c4)-c4c(O)cc(O)cc4C(C(=O)O)NC3=O)OC(CO)C(O)C2O)OC(C)C1O (centres unmarked) [RV91]	0.188 (≈ 0.109 µM)	0.25 (≈ 0.144 µM)	–
CCCCCCCCCCCCCC(=O)NCCNC1(C)CC(OC2C(Oc3c4cc5cc3Oc3ccc(cc3Cl)C(O)C3NC(=O)C(NC(=O)C5NC(=O)C(CC(N)=O)NC(=O)C(NC(=O)C(CC(C)C)NC)C(O)c5ccc(c(Cl)c5)O4)c4ccc(O)c(c4)-c4c(O)cc(O)cc4C(C(=O)O)NC3=O)OC(CO)C(O)C2O)OC(C)C1O (centres unmarked) [RV92]	0.023 (≈ 0.0135 µM)	0.031 (≈ 0.0182 µM)	–
CCCCCCCC(=O)NCCNC1(C)CC(OC2C(Oc3c4cc5cc3Oc3ccc(cc3Cl)C(O)C3NC(=O)C(NC(=O)C5NC(=O)C(CC(N)=O)NC(=O)C(NC(=O)C(CC(C)C)NC)C(O)c5ccc(c(Cl)c5)O4)c4ccc(O)c(c4)-c4c(O)cc(O)cc4C(C(=O)O)NC3=O)OC(CO)C(O)C2O)OC(C)C1O (centres unmarked) [RV93]	0.125 (≈ 0.0772 µM)	0.125 (≈ 0.0772 µM)	–
CCCCCCCCCCCCNC(=O)CNC1(C)CC(OC2C(Oc3c4cc5cc3Oc3ccc(cc3Cl)C(O)C3NC(=O)C(NC(=O)C5NC(=O)C(CC(N)=O)NC(=O)C(NC(=O)C(CC(C)C)NC)C(O)c5ccc(c(Cl)c5)O4)c4ccc(O)c(c4)-c4c(O)cc(O)cc4C(C(=O)O)NC3=O)OC(CO)C(O)C2O)OC(C)C1O (centres unmarked) [RV95]	0.031 (≈ 0.0185 µM)	0.031 (≈ 0.0185 µM)	MIC potency, fold less potent than RV40 [2, 4]: ~2 fold; MIC potency, fold more potent than telavancin [2, 4]: ~2 fold; MIC potency, fold more potent than vancomycin [2, 4]: approximately 30 fold
CNC(CC(C)C)C(=O)NC1C(=O)NC(CC(N)=O)C(=O)NC2C(=O)NC3C(=O)NC(C(=O)NC(C(=O)O)c4cc(O)cc(O)c4-c4cc3ccc4O)C(O)c3ccc(c(Cl)c3)Oc3cc2cc(c3OC2OC(CO)C(O)C(O)C2OC2CC(C)(NCC(=O)O)C(O)C(C)O2)Oc2ccc(cc2Cl)C1O (centres unmarked) [RV101]	> 128	> 128	–
CCCCCCCCNC(=O)CNC1(C)CC(OC2C(Oc3c4cc5cc3Oc3ccc(cc3Cl)C(O)C3NC(=O)C(NC(=O)C5NC(=O)C(CC(N)=O)NC(=O)C(NC(=O)C(CC(C)C)NC)C(O)c5ccc(c(Cl)c5)O4)c4ccc(O)c(c4)-c4c(O)cc(O)cc4C(C(=O)O)NC3=O)OC(CO)C(O)C2O)OC(C)C1O (centres unmarked) [RV121]	0.25 (≈ 0.154 µM)	0.25 (≈ 0.154 µM)	–
CCCCCCCCOC(=O)CNC1(C)CC(OC2C(Oc3c4cc5cc3Oc3ccc(cc3Cl)C(O)C3NC(=O)C(NC(=O)C5NC(=O)C(CC(N)=O)NC(=O)C(NC(=O)C(CC(C)C)NC)C(O)c5ccc(c(Cl)c5)O4)c4ccc(O)c(c4)-c4c(O)cc(O)cc4C(C(=O)O)NC3=O)OC(CO)C(O)C2O)OC(C)C1O (centres unmarked) [RV124]	0.5 (≈ 0.309 µM)	0.75 (≈ 0.463 µM)	–
CCCCCCCCCCCCOC(=O)CNC1(C)CC(OC2C(Oc3c4cc5cc3Oc3ccc(cc3Cl)C(O)C3NC(=O)C(NC(=O)C5NC(=O)C(CC(N)=O)NC(=O)C(NC(=O)C(CC(C)C)NC)C(O)c5ccc(c(Cl)c5)O4)c4ccc(O)c(c4)-c4c(O)cc(O)cc4C(C(=O)O)NC3=O)OC(CO)C(O)C2O)OC(C)C1O (centres unmarked) [RV126]	2 (≈ 1.19 µM)	2 (≈ 1.19 µM)	–
CCCCCCCCCCCCCCOC(=O)CNC1(C)CC(OC2C(Oc3c4cc5cc3Oc3ccc(cc3Cl)C(O)C3NC(=O)C(NC(=O)C5NC(=O)C(CC(N)=O)NC(=O)C(NC(=O)C(CC(C)C)NC)C(O)c5ccc(c(Cl)c5)O4)c4ccc(O)c(c4)-c4c(O)cc(O)cc4C(C(=O)O)NC3=O)OC(CO)C(O)C2O)OC(C)C1O (centres unmarked) [RV127]	4 (≈ 2.35 µM)	4 (≈ 2.35 µM)	–
CCCCCCCCCCCCCCCCOC(=O)CNC1(C)CC(OC2C(Oc3c4cc5cc3Oc3ccc(cc3Cl)C(O)C3NC(=O)C(NC(=O)C5NC(=O)C(CC(N)=O)NC(=O)C(NC(=O)C(CC(C)C)NC)C(O)c5ccc(c(Cl)c5)O4)c4ccc(O)c(c4)-c4c(O)cc(O)cc4C(C(=O)O)NC3=O)OC(CO)C(O)C2O)OC(C)C1O (centres unmarked) [RV128]	1 (≈ 0.577 µM)	1 (≈ 0.577 µM)	–
CCCCCCCCCCCCCCNC(=O)CNC1(C)CC(OC2C(Oc3c4cc5cc3Oc3ccc(cc3Cl)C(O)C3NC(=O)C(NC(=O)C5NC(=O)C(CC(N)=O)NC(=O)C(NC(=O)C(CC(C)C)NC)C(O)c5ccc(c(Cl)c5)O4)c4ccc(O)c(c4)-c4c(O)cc(O)cc4C(C(=O)O)NC3=O)OC(CO)C(O)C2O)OC(C)C1O (centres unmarked) [RV130]	0.125 (≈ 0.0734 µM)	0.25 (≈ 0.147 µM)	–
CCCCCCCCCCCCCCCCNC(=O)CNC1(C)CC(OC2C(Oc3c4cc5cc3Oc3ccc(cc3Cl)C(O)C3NC(=O)C(NC(=O)C5NC(=O)C(CC(N)=O)NC(=O)C(NC(=O)C(CC(C)C)NC)C(O)c5ccc(c(Cl)c5)O4)c4ccc(O)c(c4)-c4c(O)cc(O)cc4C(C(=O)O)NC3=O)OC(CO)C(O)C2O)OC(C)C1O (centres unmarked) [RV131]	4 (≈ 2.31 µM)	4 (≈ 2.31 µM)	–
